Key:
[1] = target: VirF (Shigella flexneri, UniProt P0A2T1); assay: % Inhibition at 82.5 μM, VirF; assay type: cell-based; details: for inhibition at 82.5 µM: read-out: % Inhibition at 82.5 μM VirF, 82.5 μM
[2] = target: T1, RhaS (Escherichia coli, UniProt P09377); assay: % Inhibition at 82.5 μM, RhaS; assay type: cell-based, E. coli
[3] = target: Rns (Escherichia coli, UniProt P16114); assay: % Inhibition at 82.5 μM, Rns; assay type: cell-based, Enterotoxigenic E. coli; details: for inhibition at 82.5 µM: read-out: % Inhibition at 82.5 μM Rns
Rns, sequence (P16114 whole entry, the tested form may be a part): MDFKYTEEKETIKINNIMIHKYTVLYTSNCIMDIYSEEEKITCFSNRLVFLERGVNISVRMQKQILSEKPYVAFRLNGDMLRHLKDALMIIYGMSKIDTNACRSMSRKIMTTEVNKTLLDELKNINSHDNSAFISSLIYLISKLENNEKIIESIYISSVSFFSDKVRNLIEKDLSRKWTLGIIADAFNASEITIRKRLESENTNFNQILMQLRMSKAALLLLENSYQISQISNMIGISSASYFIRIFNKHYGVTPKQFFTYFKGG

[4] = target: T1, RhaS; assay: In vivo dose-response, RhaS-activated rhaB-lacZ reporter fusion (β-galactosidase); assay type: cell-based, E. coli; details: full-length RhaS, rhaB-lacZ
Text: For dose-response studies, a rhaB-lacZ reporter strain was designed that allowed IPTG induction of RhaS or RhaS(163-278) expression from pHG165 (and thus rhaB-lacZ expression). The strain was constructed by introducing malP::lacIq into SME3000 via phage P1vir-mediated generalized transduction. First, SME3000 was transduced with Δcrp-3 zhc-511::Tn10 from SME1403, selecting for tetracycline resistance and screening for sorbitol deficiency (indicating Δcrp) using MacConkey sorbitol. SME3000 Acrp-3 zhc-511::Tn10 was transduced with crp^+ malP::lacI^q from SG22166, selecting for growth on minimal sorbitol and screening for maltose deficiency (indicating malP::lacI^q) using MacConkey maltose. Finally, SME3000 malP::lacI^q zhc-511::Tn10 was transduced with recA::cat from SME1048 by selecting for chloramphenicol resistance, to make strain SME3632.
(§1) The top hit identified in the screen was 1-ethyl-4-(nitromethyl)-3-quinolin-2-yl-4H-quinoline, Compound 2. The closely related compound, Compound 1,1-butyl-4-(nitromethyl)-3-quinolin-2-yl-4H-quinoline, was obtained from eMolecules, Inc. (Solana Beach, Calif.; catalog #3761-0013) or Princeton BioMolecular Research (Princeton, N.J.; catalog #OSSL—051168), with the Princeton named used here. […] Lysis/ONPG buffer (50 μL, as in Primary Screen) was added to each well and the plate was immediately placed into a PowerWave XS plate reader (BioTek Instruments, Inc., Winooski, Vt.), set to read the OD420 of each well every 15 min for 4 hr. […] Due to differences in kinetics of lacZ reporter expression, the rhaB-lacZ strains were analyzed at 4 hours and the hts-lacZ strain was analyzed at 1 hr. Percent activity was calculated for each condition as described above, using the single time point with appropriate OD420 levels for each strain. […] IC50 and maximal inhibition values were calculated using the XLfit add-in for Microsoft Excel (ID Business Solutions, Guildford, UK), and graphs were drawn using Prism (GraphPad, La Jolla, Calif.).

[5] = test system: LacI-repressed hts-lacZ fusion; assay: LacI-repressed hts-lacZ control reporter fusion (β-galactosidase); assay type: cell-based, E. coli; details: hts-lacZ control (SME3359)
Text: The control strain for the secondary high-throughput screen and subsequent experiments was SME3359, and carries the LacI-repressed fusion and LacI-expressing pHG165lacI. The fusion consists of lacZ under the control of an artificial promoter (Phts) with an induced expression level similar to that of the induced rhaBAD operon. Phts is regulated by Lad and induced with IPTG. The Phts core promoter elements include a near-consensus −35 sequence and a −10 sequence followed by a lacO1 operator sequence that overlaps the transcription start site with the same spacing as lacO1 at lacZYA. To construct the upstream half of Phts, oligo 2829 was annealed to oligo 2788 and the primers were extended using the Expand High Fidelity PCR System (Roche Applied Science, Indianapolis, Ind.). The downstream half of the Phts promoter was constructed by similarly annealing and extending oligos 2789 and 2790.
as §1, with “2.” for “2. The closely related compound, Compound 1,1-butyl-4-(nitromethyl)-3-quinolin-2-yl-4H-quinoline, was obtained from eMolecules, Inc. (Solana Beach, Calif.; catalog #3761-0013) or Princeton BioMolecular Research (Princeton, N.J.; catalog #OSSL—051168), with the Princeton named used here.”
In vivo dose-response assays were performed using a procedure described previously. […] Bacterial cultures were mixed with varying concentrations of SE-1 (2.2% DMSO, final), induced with 6.5 mM IPTG for 3 h at 37° C., lysed and β-galactosidase activity was measured. […] IC50 values were calculated and graphs were drawn using Prism (GraphPad, La Jolla, Calif.).

VirF, sequence (P0A2T1 whole entry): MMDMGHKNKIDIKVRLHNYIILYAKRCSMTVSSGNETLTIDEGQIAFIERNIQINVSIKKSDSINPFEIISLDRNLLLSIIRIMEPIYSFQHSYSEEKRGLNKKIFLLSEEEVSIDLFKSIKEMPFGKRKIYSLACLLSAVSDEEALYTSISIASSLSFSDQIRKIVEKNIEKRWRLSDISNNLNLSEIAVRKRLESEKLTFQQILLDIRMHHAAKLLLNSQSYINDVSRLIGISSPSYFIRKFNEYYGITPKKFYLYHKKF
T1 sequence (P09377 whole entry): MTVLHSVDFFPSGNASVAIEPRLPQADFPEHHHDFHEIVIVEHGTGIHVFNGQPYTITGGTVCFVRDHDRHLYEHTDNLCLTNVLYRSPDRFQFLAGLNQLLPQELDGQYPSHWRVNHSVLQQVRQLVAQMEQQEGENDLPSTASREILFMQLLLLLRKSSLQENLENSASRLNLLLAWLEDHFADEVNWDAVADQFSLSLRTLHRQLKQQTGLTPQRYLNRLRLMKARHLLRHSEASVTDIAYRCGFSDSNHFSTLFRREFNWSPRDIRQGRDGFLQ

SMILES	inhibition at 82.5 µM [1] [%]	inhibition at 82.5 µM [2] [%]	inhibition at 82.5 µM [3] [%]	inhibition of the RhaS-activated fusion [4]	inhibition of the LacI-repressed fusion [5]	% Inhibition at 82.5 μM VirF ([1]; 82.5 μM) [%]	% Inhibition at 82.5 μM RhaS [2] [%]	% Inhibition at 82.5 μM Rns ([3]; 82.5 μM) [%]
CCN1C=C(c2ccc3ccccc3n2)C(C[N+](=O)[O-])c2ccccc21 (centres unmarked) [Compound 2, 1-ethyl-4-(nitromethyl)-3-quinolin-2-yl-4H-quinoline]	100	90	60	particularly robust, dose-dependent inhibition	substantially less inhibition	–	–	–
CCCCN1C=C(c2ccc3ccccc3n2)C(C#N)c2ccccc21 (centres unmarked) [Compound A01]	20	30	20	–	–	–	–	–
CCN1C=C(c2ccc3ccccc3n2)C(C#N)c2ccccc21 (centres unmarked) [Compound A1]	20	30	30	–	–	–	–	–
CCOC(=O)C(C(=O)OCC)C1C(c2ccc3ccccc3n2)=CN(C)c2ccccc21 (centres unmarked) [Compound A2]	100	80	80	–	–	–	–	–
CCCCN1C=C(c2cccc(C)n2)C(C#N)c2ccccc21 (centres unmarked) [Compound A03]	0	40	10	–	–	–	–	–
CCOC(=O)CN1C=C(c2ccc3ccccc3n2)C(C[N+](=O)[O-])c2ccccc21 (centres unmarked) [Compound A3]	10	0	30	–	–	–	–	–
CCCCN1C=C(c2ccc3ccccc3n2)C(C[N+](=O)[O-])c2ccccc21 (centres unmarked) [Compound A07]	90	90	90	–	–	–	–	–
O=[N+]([O-])CC1C(c2ccc3ccccc3n2)=CN(Cc2ccc(Cl)cc2)c2ccccc21 (centres unmarked) [Compound A08]	40	40	30	–	–	–	–	–
CCCCN1C=C(c2cccc(C)n2)C(C[N+](=O)[O-])c2ccccc21 (centres unmarked) [Compound A09]	10	50	0	–	–	–	–	–
Cc1cccc(C2=CN(Cc3ccc(Cl)cc3)c3ccccc3C2C[N+](=O)[O-])n1 (centres unmarked) [Compound A10]	10	30	0	–	–	–	–	–
CCCCN1C=C(c2ccc3ccccc3n2)Cc2ccccc21 [Compound A21]	70	60	80	–	–	–	–	–
CCCCN1C=C(c2ccc3ccccc3n2)C(C)c2ccccc21 (centres unmarked) [Compound A23]	30	0	10	–	–	–	–	–
C[n+]1cc(-c2ccc3ccccc3n2)cc2ccccc21 [Compound A24]	100	94	90	–	–	–	–	–
C=CCCC[n+]1cc(-c2ccc3ccccc3n2)cc2ccccc21 [Compound A25]	100	80	100	–	–	–	–	–
CN1C=C(c2ccc3ccccc3n2)C(C#N)c2ccccc21 (centres unmarked) [Compound C4]	90	70	80	–	–	–	–	–
CN1C=C(c2ccc3ccccc3n2)C(c2c(-c3ccccc3)[nH]c3ccccc23)c2ccccc21 (centres unmarked) [Compound D2]	40	10	10	–	–	–	–	–
O=[N+]([O-])CC1C(c2ccc3ccccc3n2)=CN(Cc2ccccc2)c2ccccc21 (centres unmarked) [Compound D3]	70	60	60	–	–	–	–	–
CN1C=C(c2ccc3ccccc3n2)C(C[N+](=O)[O-])c2ccccc21 (centres unmarked) [Compound E1]	100	90	80	–	–	–	–	–
Clc1ccc(C[n+]2cc(-c3ccc4ccccc4n3)cc3ccccc32)cc1.[Br-] [Compound I01]	–	–	–	–	–	50	50	50
CCCC[n+]1cc(-c2ccc3ccccc3n2)cc2ccccc21 [Compound I02]	90	90	90	–	–	–	–	–
Clc1ccc(C[n+]2cc(-c3ccc4ccccc4n3)cc3ccccc32)cc1 [Compound I03]	60	60	50	–	–	–	–	–
CC(C)[n+]1cc(-c2ccc3ccccc3n2)cc2ccccc21 [Compound I10]	100	80	90	–	–	–	–	–
CCC[n+]1cc(-c2ccc3ccccc3n2)cc2ccccc21 [Compound I11]	100	80	90	–	–	–	–	–
CCCCCC[n+]1cc(-c2ccc3ccccc3n2)cc2ccccc21 [Compound I12]	100	90	100	–	–	–	–	–
CCCCCCCCC[n+]1cc(-c2ccc3ccccc3n2)cc2ccccc21 [Compound I13]	100	100	100	–	–	–	–	–
CCCC[n+]1cc(-c2ccc3ccccc3c2)cc2ccccc21 [Compound I14]	100	90	100	–	–	–	–	–
C[n+]1sc(Nc2ccccc2)nc1-c1ccccc1 [JS01]	100	100	100	–	–	–	–	–
C[n+]1ccccc1/C=C/c1ccc(Br)cc1 [JS03]	50	20	10	–	–	–	–	–

Reference: patent publication US20140088144A1, “INHIBITING MICROBIAL INFECTIONS” (THE UNIVERSITY OF KANSAS, priority 2012, published 2014)
